Measured values taken from patent publication US20070248646A1, “Use of azurocidin inhibitors in prevention and treatment of ocular vascular leakage” (priority 2006, published 2007).

Tests used:
[1] = system: retinal vascular permeability; test: Qualitative evaluation of retinal vascular permeability with 20-kDa FITC conjugated dextran; format: in vivo, Brown Norway rats; conditions: flat-mount retinas, VEGF-injected eyes with or without aprotinin
Experimental: Retinal vascular permeability was documented in a histological manner by intravenous injection of 20-kDa FITC conjugated dextran (50 mg/Kg, Sigma Aldrich). Rats were sacrificed 30 minutes later with intracardiac perfusion of 4% paraformaldehyde to fix the dextran conjugate in the tissues. The retinas were carefully dissected and flat mounted in anti-fading medium (Vector Laboratories). Flat-mount retinas were examined by fluorescent microscopy. Digital color enhancement (green) was equally applied to all images for improved visualization of fluorescence.

[2] = system: intravitreal leukocyte accumulation in EIU; test: Intravitreal leukocyte accumulation in Endotoxin-Induced-Uveitis; format: in vivo, Lewis rats; conditions: 24 hours post LPS-injection; aprotinin 50,000KIU at 0, 8, 16 hours; EIU 343.6±11.7
Experimental: (§1) EIU was induced in Lewis rats via footpad injection of 100 μl (1 mg/ml) lipopolysaccharide (LPS). Control animals received an equal volume of saline. The experiments were conducted 24 hours after LPS injection. At this time point, several experimental parameters were assessed.
(§2) To block AZ, animals received 5 ml of aprotinin (Trasylol®; 50,000KIU). The first injection was given at the same time as the footpad injection, followed by a second injection 8 hours later and a third injection 16 hours later. The control animals received and equal amounts of vehicle control. LPS was purchased in lyophilized form from Sigma (#L6511).
To assess leukocyte extravasations into the vitreal cavity during EIU, histological slides of the whole eyes of treated rats were generated and the number of leukocytes in the vitreous cavity of these sections was counted. To do so, whole eyes were placed in 4% paraformaldehyde for fixation. Gradual infiltration of graded alcohols was followed by xylene and finally by liquid paraffin. Paraffin submerged eyes were then cooled to harden. Six-micron sections were cut on a Leica microtome and placed on slides. Sections were stained with hematoxylin and eosin and coverslipped.

[3] = system: retinal leukostasis in EIU; test: Retinal leukostasis in Endotoxin-Induced-Uveitis (ConA staining); format: in vivo, Lewis rats; conditions: 24 hours post EIU induction; aprotinin 50,000KIU at 0, 8, 16 hours; EIU 106.6±6.5, normal 17±1.2; n=6
Experimental: as §1, §2
Under deep anesthesia, a rat's chest cavity was opened, and its left ventricle was cannulated to allow perfusion (Ishida (2003) supra). The rat's right atrium was opened to achieve outflow. […] The eyes were enucleated, and the retinas were dissected and flatmounted in a water-based fluorescence anti-fading medium (Fluoromount; Southern Biotechnology, Birmingham, Ala.) and imaged by fluorescence microscopy (Leica, FITC filter). […] Leukocytes in arteries, veins, and capillaries of each retinal tissue were counted, and the total number of adherent leukocytes per retina was calculated. […]

aprotinin was tested, and the “retinal distribution of intravenously injected 20 kDa FITC-conjugated dextran” value [1] was “fluorescein staining more localized to the retinal vasculature”, the “number of leukocytes found intravitreally” value [2] was 119.2±8.4 and the “retinal leukostasis (firmly adhering leukocytes per retina)” value [3] was 32.4±2.9 cells.
